Assay results as given in patent US20120171213A1, “METHOD OF TREATING TUMORS” (Yissum Research Development Company of the Hebrew …, priority 2009, published 2012).

Columns and labels:
[1] = system: hES-cell teratoma-derived tumor cells (WA09, TE06); test: Annexin V / PI flow cytometry for apoptosis after Taxol and Purvalanol A treatment in vitro; type: cell-based, human; details: 0.2 µM Taxol 16 hours and/or 10 µM Purvalanol A 16 hours, sequential, versus DMSO, n=5
Protocol: FACS: Annexin V and PI staining for apoptosis detection was performed using the Annexin V-PE kit (Bender MedSystems) according to the manufacturer's instructions. FACS analysis was performed using FACSCaliber system (Becton Dickinson). Analysis was performed on […] software (Becton Dickinson). Forward and side scatter plots were used to exclude debris from the histogram analysis.
The medium was then replaced with a medium containing […] Purvalanol A (Sigma), and the cells were cultured for an additional 16 hours. Other wells were treated with either Taxol for 16 hours followed by DMSO (the solution vehicle) for 16 hours or DMSO for 16 hours followed by Purvalanol A for 16 hours. Control wells were treated twice with DMSO at the same time points. Mice bearing hES-cell teratomas for 30 d were injected intraperitoneally with 7 mg/kg Taxol and 24 hours later were injected with 60 mg/kg Purvalanol A. Reagents were injected in a solution of DMSO/PEG400 at 1:1 ratio. Control mice received vehicle injections at the same time points. Mice were euthanized 18 hours after the last injection. Fresh frozen […] teratoma sections were subjected to TUNEL using the ApoAlert DNA Fragmentation Assay Kit (Clontech) according to the manufacturer's instructions.

tumor cell = details: both in vitro and in vivo; cited from earlier work

Compound	fold increase in apoptotic cells (Annexin V positive) [1]	tumor cell death by apoptosis (tumor cell)
CC(C)[C@H](CO)Nc1nc(Nc2cccc(Cl)c2)c2ncn(C(C)C)c2n1 [Purvalanol A]	no significant effect	negligible results
CC(=O)O[C@H]1C(=O)[C@@]2(C)[C@H]([C@H](OC(=O)c3ccccc3)[C@]3(O)C[C@H](OC(=O)[C@H](O)[C@@H](NC(=O)c4ccccc4)c4ccccc4)C(C)=C1C3(C)C)[C@]1(OC(C)=O)CO[C@@H]1C[C@@H]2O [Taxol]		negligible results
